The values below come from patent US5883243A, “Non-reducing saccharides, their preparations and uses” (Kabushiki Kaisha Hayashibara Seibutsu Kagaku Kenkyujo, priority 1997, dated 1999).

Assay [1] has as its system Streptococcus faecalis IAM 10065. The assay can be described thus: Assimilation test by intestinal microorganism. The assay is classed as cell-based. Particulars: 0.5 w/v % saccharide in PYF broth, 37° C., 96 hours.
Assay [2] deals with Bifidobacterium infantis JCM 1222. As to the kind of experiment: Assimilation test by intestinal microorganism. The assay is classed as cell-based. Particulars: 0.5 w/v % saccharide in PYF broth, 37° C., 96 hours.
Assay [3] concerns Bifidobacterium adolescentis JCM 1275. As to the kind of experiment: Assimilation test by intestinal microorganism. Particulars: 0.5 w/v % saccharide in PYF broth, 37° C., 96 hours. The format is cell-based.
Assay [4] relates to Bacteroides vulgatus JCM 5826. As to the kind of experiment: Assimilation test by intestinal microorganism. The format is cell-based. Particulars: 0.5 w/v % saccharide in PYF broth, 37° C., 96 hours.
Assay [5] concerns Clostridium butyricum JCM 1391. The format is cell-based. Particulars: 0.5 w/v % saccharide in PYF broth, 37° C., 96 hours.
Assay [6] has as its system Clostridium ramosum JCM 1298. As to the kind of experiment: Assimilation test by intestinal microorganism. The assay is classed as cell-based. Particulars: 0.5 w/v % saccharide in PYF broth, 37° C., 96 hours.
Assay [7] relates to Lactobacillus plantarum IFO 3070. The assay can be described thus: Assimilation test by intestinal microorganism. The assay is classed as cell-based. Particulars: 0.5 w/v % saccharide in PYF broth, 37° C., 96 hours.
The subject of assay [8] is Eubacterium aerofaciens ATCC 25986. The assay can be described thus: Assimilation test by intestinal microorganism. The assay is classed as cell-based. Particulars: 0.5 w/v % saccharide in PYF broth, 37° C., 96 hours.
Assay [9] relates to Clostridium perfringens JCM 3816. The format is cell-based. Particulars: 0.5 w/v % saccharide in PYF broth, 37° C., 96 hours.
Assay [10] relates to Escherichia coli IFO 3301. As to the kind of experiment: Assimilation test by intestinal microorganism. Particulars: 0.5 w/v % saccharide in PYF broth, 37° C., 96 hours. The format is cell-based.
Assay [11] concerns Peptostreptococcus prevotii ATCC 9321. The assay can be described thus: Assimilation test by intestinal microorganism. The format is cell-based. Particulars: 0.5 w/v % saccharide in PYF broth, 37° C., 96 hours.
For assay [12], the system named is Bacteroides distasonis JCM 5825. The assay can be described thus: Assimilation test by intestinal microorganism. The assay is classed as cell-based. Particulars: 0.5 w/v % saccharide in PYF broth, 37° C., 96 hours.
In assay [13] the test system is Bifidobacterium breve JCM 1192. The assay can be described thus: Assimilation test by intestinal microorganism. The assay is classed as cell-based. Particulars: 0.5 w/v % saccharide in PYF broth, 37° C., 96 hours.
Assay [14] deals with Clostridium sporogenes JCM 1416. The assay can be described thus: Assimilation test by intestinal microorganism. Particulars: 0.5 w/v % saccharide in PYF broth, 37° C., 96 hours, free of sugar: ±. The assay is classed as cell-based. The protocol:
To evaluate the growth rate of and to judge the assimilability by the microorganisms, the resultant broth was diluted 5-fold, and the turbidity of the dilution was measured at a wavelength of 750 nm in a 1-cm light-path cell. […] The criteria were in Table 3, and the results were in Tables 4 and 5: […]

For assay [15], the system named is Bifidobacterium bifidum JCM 1255. As to the kind of experiment: Assimilation test by intestinal microorganism. The format is cell-based. Particulars: 0.5 w/v % saccharide in PYF broth, 37° C., 96 hours.
The test system of assay [16] is Bacteroides uniformis JCM 5828. As to the kind of experiment: Assimilation test by intestinal microorganism. Particulars: 0.5 w/v % saccharide in PYF broth, 37° C., 96 hours. The format is cell-based.
In assay [17] the test system is Lactobacillus fermentum IFO 3959. As to the kind of experiment: Assimilation test by intestinal microorganism. The assay is classed as cell-based. Particulars: 0.5 w/v % saccharide in PYF broth, 37° C., 96 hours.
Assay [18] relates to Bifidobacterium longum JCM 1217. The assay can be described thus: Assimilation test by intestinal microorganism. The format is cell-based. Particulars: 0.5 w/v % saccharide in PYF broth, 37° C., 96 hours.
Assay [19] concerns Bifidobacterium animalis JCM 1190. The assay can be described thus: Assimilation test by intestinal microorganism. The format is cell-based. Particulars: 0.5 w/v % saccharide in PYF broth, 37° C., 96 hours.
Assay [20] deals with Streptococcus sobrinus ATCC 27351. As to the kind of experiment: Acid formation by dental caries-inducing microorganisms. Particulars: living wet cells, 0.02M saccharide, Stephen buffer pH 7.0, 37° C.

Regarding `O=C[C@H](O)[C@@H](O)[C@H](O)[C@H](O)CO` [A, glucose, reference compound], the “Judgement of assimilation (turbidity at a wavelength of 750 nm × 5)” value (shortened to “Judgement of assimilation”) was “++ (0.2 or higher but less than 0.3)” in [1]; “++ (0.2 or higher but less than 0.3)” in assay [2]; “+++ (0.3 or higher)” in assay [3]; “+ (0.15 or higher but less than 0.2)” in assay [4]; “+++ (0.3 or higher)” in assay [5]; “+ (0.15 or higher but less than 0.2)” in [6]. Moreover, the “Judgement of assimilation” value is reported as “++ (0.2 or higher but less than 0.3)” in assay [7]; “+++ (0.3 or higher)” in [8]; “+++ (0.3 or higher)” in assay [9]; “+ (0.15 or higher but less than 0.2)” in [10]; “+ (0.15 or higher but less than 0.2)” in assay [11]; “++ (0.2 or higher but less than 0.3)” in [12]. Further, the “Judgement of assimilation” value in [13] is listed as “++ (0.2 or higher but less than 0.3)”; in assay [14], “+ (0.15 or higher but less than 0.2)”; in assay [15], “++ (0.2 or higher but less than 0.3)”; in assay [16], “++ (0.2 or higher but less than 0.3)”; in [17] it was “++ (0.2 or higher but less than 0.3)”; in [18] it was “+++ (0.3 or higher)”. For the same molecule, the “Judgement of assimilation” value in assay [19] is “+++ (0.3 or higher)”.

For `OC[C@H]1O[C@H](OC[C@H]2OC(O)[C@H](O)[C@@H](O)[C@@H]2O)[C@H](O)[C@@H](O)[C@@H]1O` (stereo partly shown) [Isomaltose, isomaltose, reference compound], the “Judgement of assimilation” value is listed as “+ (0.15 or higher but less than 0.2)” in assay [1]; “+++ (0.3 or higher)” in assay [2]; “+++ (0.3 or higher)” in assay [3]; “- (Less than 0.1)” in [4]; “- (Less than 0.1)” in assay [6]; “- (Less than 0.1)” in assay [7]. Further, the “Judgement of assimilation” value was “+ (0.15 or higher but less than 0.2)” in [8]; “± (0.1 or higher but less than 0.15)” in [9]; “- (Less than 0.1)” in [10]; “- (Less than 0.1)” in [11]; “+ (0.15 or higher but less than 0.2)” in assay [12]; “+++ (0.3 or higher)” in assay [13]. For the same molecule, the “Judgement of assimilation” value in [14] is on record as “± (0.1 or higher but less than 0.15)”; in assay [15], “+ (0.15 or higher but less than 0.2)”; in assay [16], “- (Less than 0.1)”; in assay [17] it was “- (Less than 0.1)”; in [18] it was “++ (0.2 or higher but less than 0.3)”; in [19] it was “+++ (0.3 or higher)”. Further, in assay [20] (0 min), the “pH at each fermentation time (min): 0” value worked out at 7.0. In [20] (5 min), the “pH at each fermentation time (min): 5” value came to 7.0. Besides, the “pH at each fermentation time (min): 15” value in assay [20] (15 min) came to 6.9. In [20] (30 min), the “pH at each fermentation time (min): 30” value was found to be 6.9. Also, in [20] (60 min), the “pH at each fermentation time (min): 60” value was found to be 6.8. In assay [20] (90 min), the “pH at each fermentation time (min): 90” value came to 6.7.
